Results reported in patent US10363284B2, “β-hairpin peptidomimetics” (POLYPHOR AG, priority 2012, dated 2019).
Positions of bridges follow the written chain, without caps; N, C: chain ends. Non-standard residues stand in square brackets, D forms with d. Residues, ends and D or L forms follow the SMILES beside them. dLys(iPr) = CC(C)NCCCC[C@@H](N)C(=O)O; Lys(iPr) = CC(C)NCCCC[C@H](N)C(=O)O; Orn(iPr) = CC(C)NCCC[C@H](N)C(=O)O; Ac3c = NC1(C(=O)O)CC1

Assay: Plasma stability, mouse plasma
Format: in vitro ADME
Conditions: for mouse pl. T1/2: 37° C.; for remaining at 24 h, 10 μM: 1440 min, read-out: mouse pl. cpd left at 1440 min
Method: The stability of the peptides in human and mouse plasma was determined by applying the following method: 346.5 μL/deep well of freshly thawed human plasma (Basler Blutspende-dienst) and mouse plasma (Harlan Sera-Lab, UK), respectively, were spiked with 3.5 μL/well of compound dissolved in DMSO/H2O (90/10 [v/v], 1 mM, triplicate) and incubated at 37° C. At t=0, 15, 30, 60, 120, 240 and 1440 min aliquots of 50 μL were transferred to filtration plate wells containing 150 μL/well of 2% formic acid in acetonitrile. Following shaking for 2 min the occurred suspensions were filtrated by vacuum. 100 μL of each filtrate were transferred to a propylene microtiter plate and dried under N2. The residual solids were reconstituted by adding 100 μL/well of water/acetonitrile, 95/5 (v/v)+0.2% formic acid and analyzed by LC/MS as follows: Column: Waters, XBridge C18, mobile phases: (A) water+0.1% formic acid and (B) acetonitrile/water, 95/5 (v/v)+0.1% formic acid, gradient: 5%-100% (B) in 1.8 minutes, electrospray ionization, MRM detection (triple quadrupole). The peak areas were determined and triplicate values are averaged. The stability is expressed in percent of the initial value at t=0. (tx/t0×100). By using the TREND function of EXCEL (Microsoft Office 2003) T1/2 were determined.

SMILES: CC(C)NCCCC[C@@H]1NC(=O)[C@H](CCC(N)=O)NC(=O)[C@H](Cc2ccc(O)cc2)NC(=O)[C@@H]2CSSC[C@H](NC(=O)[C@H](Cc3ccc(O)cc3)NC(=O)[C@H](Cc3c[nH]cn3)NC(=O)[C@H](Cc3ccc(O)cc3)NC(=O)[C@@H]3CCCN3C(=O)[C@@H](CCCCNC(C)C)NC1=O)C(=O)N[C@@H](CO)C(=O)N[C@@H](C)C(=O)N1CCC[C@@H]1C(=O)N[C@@H](CCCNC(C)C)C(=O)N[C@@H](CCCNC(=N)N)C(=O)N[C@@H](Cc1ccc(O)cc1)C(=O)N2 [Ex. 1, cyclo(-Tyr^1-His^2-Tyr^3-Cys^4-Ser^5-Ala^6-^DPro^7-Orn(iPr)^8-Arg^9-Tyr^10-Cys^11-Tyr^12-Gln^13-Lys(iPr)^14-^DLys(iPr)^15-Pro^16-), disulfide bond between Cys^4 and Cys^11] (cyclo(A[dP][Orn(iPr)]RYCYQ[Lys(iPr)][dLys(iPr)]PYHYCS); disulfide 6-15)
- mouse pl. T1/2: 1440 min
- remaining at 24 h, 10 μM: 100%

SMILES: CC(C)NCCCC[C@@H]1NC(=O)[C@H](CCC(N)=O)NC(=O)[C@H](Cc2ccc(O)cc2)NC(=O)[C@@H]2CSSC[C@H](NC(=O)[C@H](Cc3ccc(O)cc3)NC(=O)[C@H](Cc3c[nH]cn3)NC(=O)[C@H](Cc3ccc(O)cc3)NC(=O)[C@@H]3CCCN3C(=O)[C@H]3CCCN3C1=O)C(=O)N[C@@H](CO)C(=O)NC1(CC1)C(=O)N1CCC[C@@H]1C(=O)N[C@@H](CCCNC(C)C)C(=O)N[C@@H](CCCNC(=N)N)C(=O)N[C@@H](Cc1ccc(O)cc1)C(=O)N2 [Ex. 2, cyclo(-Tyr^1-His^2-Tyr^3-Cys^4-Ser^5-Acc^6-^DPro^7-Orn(iPr)^8-Arg^9-Tyr^10-Cys^11-Tyr^12-Gln^13-Lys(iPr)^14-^DPro^15-Pro^16-), disulfide bond between Cys^4 and Cys^11] (cyclo(YHYCS[Ac3c][dP][Orn(iPr)]RYCYQ[Lys(iPr)][dP]P); disulfide 4-11)
- mouse pl. T1/2: 1440 min
- remaining at 24 h, 10 μM: 100%
